Reference: EPA's ToxValDB 9.5 (doi:10.2903/j.efsa.2010.1542)
≈ marks a conversion by molar mass, not a printed value.

Tests used:
Canidae = conditions: chronic; duration: 1 years; oral; Dog Other; organ weight
Apis mellifera = conditions: acute; duration: 48 hours; oral; unspecified; mortality
Daphnia magna = conditions: chronic/long-term; duration: 21 days; reproduction
Pimephales promelas = conditions: chronic/long-term; duration: 33 days; growth
Oncorhynchus mykiss = conditions: acute; duration: 96 hours; mortality
Rattus norvegicus = conditions: for NOAEL: organ weight
Bibionidae = conditions: chronic/long-term; duration: 28 days
Aphidius rhopalosiphi = assay: LR50; higher = less toxic; conditions: not reported; mortality

CO/C=C(/C(=O)OC)c1ccccc1Oc1cc(Oc2ccccc2C#N)ncn1 [Azoxystrobin]
NOAEL (Canidae): 25 mg/kg-day | LD50 (Apis mellifera): > 25 µg/piece | NOEC (Daphnia magna): 0.044 mg/L | LC50 (Colinus virginianus; acute, oral, diet, mortality): > 5200 mg/kg-day | LD50 (Colinus virginianus; acute, oral, mortality): > 2000 mg/kg-day | NOEC (Colinus virginianus; reproduction developmental): 1200 mg/kg-day | NOEC (Pimephales promelas): 0.147 mg/L | LC50 (Oncorhynchus mykiss): 0.47 µg/mL (≈ 1.17 µM) | LD50 (Rattus norvegicus; acute, oral, mortality): > 5000 mg/kg-day | NOAEL (Rattus norvegicus; chronic, duration: 2 years, oral, diet): 18 mg/kg-day | NOEL (Rattus norvegicus; reproduction developmental, body weight): 32 mg/kg-day | NOAEL (Rattus norvegicus; subchronic, duration: 90 days, oral): 21 mg/kg-day | LC50 (Tagia sp.; acute, duration: 14 days, mortality): 283 mg/kg | NOEC (Tagia sp.; chronic/long-term, duration: 56 days): 3 mg/kg | NOEC (Bibionidae): 0.8 mg/L | LR50 (Aphidius rhopalosiphi): > 1000 g/ha
